Data taken from publication PMC5142810, “Structure of protein O-mannose kinase reveals a unique active site architecture” (eLife, 2016).

Columns and labels:
[1] = target: T1, DrPOMK (Danio rerio, UniProt Q5U3W1); experiment: 1H NMR titration, Man H1 peak intensity; type: binding; settings: read-out: dissociation constant
T1 construct: gene pomk; lumenal kinase domain, residues 49-347, secreted from Hi5 insect cells (baculovirus); N-terminal 6xHis-MBP removed by TEV for crystallization

[2] = target: T2, CoPOMK (Capsaspora owczarzaki, UniProt A0A0D2WXW5); experiment: radiometric kinase assay, […] incorporation, C18 cartridge; type: biochemical; settings: 20 μM GGM-MU, 100 μM ATP, 10 mM MnCl2, 50 mM HEPES pH 7.5, 20 °C, 30 min
T2 construct: gene CAOG_008172; residues 112-610, 6xHis-MBP fusion (psMBP2), secreted from Hi5 insect cells (baculovirus)
T2 sequence (A0A0D2WXW5 112-610): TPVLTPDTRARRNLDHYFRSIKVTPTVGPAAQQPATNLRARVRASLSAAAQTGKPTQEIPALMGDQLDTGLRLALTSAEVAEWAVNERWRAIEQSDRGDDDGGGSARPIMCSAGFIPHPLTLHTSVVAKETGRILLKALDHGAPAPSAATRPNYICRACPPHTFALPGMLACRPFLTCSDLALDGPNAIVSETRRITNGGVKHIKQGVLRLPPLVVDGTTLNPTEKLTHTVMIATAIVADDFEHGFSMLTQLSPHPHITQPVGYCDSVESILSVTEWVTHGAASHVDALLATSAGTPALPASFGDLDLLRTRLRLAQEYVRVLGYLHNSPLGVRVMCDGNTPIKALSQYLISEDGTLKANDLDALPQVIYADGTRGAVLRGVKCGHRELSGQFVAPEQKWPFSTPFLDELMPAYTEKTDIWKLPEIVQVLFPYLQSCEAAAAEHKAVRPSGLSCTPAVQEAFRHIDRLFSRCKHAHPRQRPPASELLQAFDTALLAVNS

[3] = target: T3, HsPOMK (Homo sapiens, UniProt Q9H5K3); experiment: as above; type: biochemical; settings: 20 μM GGM-MU, 100 μM ATP, 10 mM MnCl2, 50 mM HEPES pH 7.5, 20 °C, 30 min
T3 construct: gene POMK; lumenal kinase domain, residues 49-350, 6xHis-MBP fusion kept, secreted from Hi5 insect cells (baculovirus)
T3 sequence (Q9H5K3 49-350): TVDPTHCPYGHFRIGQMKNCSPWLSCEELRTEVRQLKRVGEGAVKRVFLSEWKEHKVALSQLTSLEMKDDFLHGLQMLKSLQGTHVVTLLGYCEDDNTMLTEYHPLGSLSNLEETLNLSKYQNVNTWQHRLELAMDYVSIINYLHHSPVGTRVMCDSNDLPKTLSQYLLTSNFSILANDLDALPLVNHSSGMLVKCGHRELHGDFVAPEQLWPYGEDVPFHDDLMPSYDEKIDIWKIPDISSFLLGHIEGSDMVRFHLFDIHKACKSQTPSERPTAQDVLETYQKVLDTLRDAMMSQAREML

T1 sequence (Q5U3W1 49-347): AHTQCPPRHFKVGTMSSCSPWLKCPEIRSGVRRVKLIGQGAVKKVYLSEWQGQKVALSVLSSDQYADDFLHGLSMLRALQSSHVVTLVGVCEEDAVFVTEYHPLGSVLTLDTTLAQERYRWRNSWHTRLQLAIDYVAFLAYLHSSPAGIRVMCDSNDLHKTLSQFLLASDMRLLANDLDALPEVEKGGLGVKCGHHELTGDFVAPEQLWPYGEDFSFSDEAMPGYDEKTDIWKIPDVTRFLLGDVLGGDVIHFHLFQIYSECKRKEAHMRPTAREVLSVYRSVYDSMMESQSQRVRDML

SMILES: CC(=O)N[C@H]1[C@H](O[C@H]2[C@H](O)[C@@H](CO)O[C@@H](O[C@H]3[C@H](O)[C@H](O)[C@@H](Oc4ccc5c(C)cc(=O)oc5c4)O[C@@H]3CO)[C@@H]2NC(C)=O)O[C@H](CO)[C@H](O)[C@@H]1O [GGM-MU]
- Kd [1]: 30.2 µM
- radiometric kinase assay, 32P incorporation, C18 cartridge [2]: POMK homologues phosphorylates GGM-MU.
- radiometric kinase assay, 32P incorporation, C18 cartridge [3]: POMK homologues phosphorylates GGM-MU.
